Counter-ions that a name gives are not always drawn.
How the values were obtained:
[1] = target: Human EGF receptor tyrosine kinase (Homo sapiens, UniProt P00533); details: read-out: EGFR (isolated enzyme) IC50; isolated enzyme from A431 cells, 10 μM ATP
Description: Human EGF receptor tyrosine kinase was isolated from A431 human epidermoid carcinoma cells by the following method. Cells were grown in roller bottles in dMEM/F12 media (Gibco/BRL) containing 10% fetal calf serum. Approximately 10^9 cells were lysed in 2 volumes of buffer containing 20 mM N-[2-hydroxyethyl]piperazine-N′-[2-ethane sulfonic acid](Hepes), pH 7.4, 5 mM ethylene glycol-bis(β-aminoethyl ether) N,N,N′,N′-tetraacetic acid (EGTA), 1% Triton X-100, 10% glycerol, 0.1 mM sodium orthovanadate, 5 mM sodium fluoride, 4 mM pyrophosphate, 4 mM benzamide, 1 mM dithiothreitol (DTT), 80 μg/mL aprotinin, 40 μg/mL leupeptin, and 1 mM phenylmethyl sulfonyl fluoride (PMSF). After centrifugation at 25,000×g for 10 minutes, the supernatant was applied to a fast Q sepharose column (Pharmacia Biotech., Inc., Piscataway, N.J.) and eluted with a linear gradient from 0.1 M NaCl to 0.4 M NaCl in 50 mM Hepes, 10% glycerol, pH 7.4. Enzyme active fractions were pooled, divided into aliquots, and stored at −100° C.
Enzyme assays for IC50 determinations were performed in 96-well filter plates (Millipore MADVN6550, Millipore, Bedford, Mass). […] The wells are then washed 5 times with 0.2 mL of 10% TCA and ^32P incorporation determined with a Wallac beta plate counter (Wallac, Inc., Gaithersburg, Pa.).

[2] = target: T1, EGFR (Homo sapiens, UniProt P00533); details: read-out: EGFR (autophosphorlyation) IC50; A431 cells, 15 minutes compound, stimulated with 100 ng/mL EGF
Description: (§1) Extracts were made by lysing the monolayers in 0.2 mL of boiling Laemlli buffer (2% sodium dodecyl sulfate, 5% beta-mercaptoethanol, 10% glycerol and 50 mM tris[hydroxymethyl]aminomethane (Tris), pH 6.8), and the lysates were heated to 100° C. for 5 minutes. Proteins in the lysate were separated by polyacrylamide gel electrophoresis and electrophoretically transferred to nitrocellulose. The membrane was washed once in 10 mM Tris, pH 7.2, 150 mM NaCl, 0.01% Azide (TNA), and blocked overnight in TNA containing 5% bovine serum albumin and 1% ovalbumin. The membrane was blotted for 2 hours with antiphosphotyrosine antibody (UBI, 1 μg/mL in blocking buffer) and then washed twice in TNA, once in TNA containing 0.05% Tween-20 detergent and 0.05% nonidet P-40 detergent and twice in TNA. […] Band intensities were determined with a Molecular Dynamics laser densitometer.
Duplicate sets of cells were treated with a range of concentrations of the designated compound to be tested as an inhibitor for 15 minutes. The cells were then stimulated with 100 ng/mL of EGF for 5 minutes and extracts made as described under the Western Blotting Procedure.

[3] = target: T1, EGFR; details: A431 cells, 2 μM compound
Description: as §1

[4] = target: ErbB-2 (Homo sapiens, UniProt P04626); assay: ErbB-2 autophosphorylation assay; assay type: cell-based; details: read-out: ErbB-2 (autophosphorlyation) IC50
Chain of ErbB-2 (P04626 23-1255, species assumed): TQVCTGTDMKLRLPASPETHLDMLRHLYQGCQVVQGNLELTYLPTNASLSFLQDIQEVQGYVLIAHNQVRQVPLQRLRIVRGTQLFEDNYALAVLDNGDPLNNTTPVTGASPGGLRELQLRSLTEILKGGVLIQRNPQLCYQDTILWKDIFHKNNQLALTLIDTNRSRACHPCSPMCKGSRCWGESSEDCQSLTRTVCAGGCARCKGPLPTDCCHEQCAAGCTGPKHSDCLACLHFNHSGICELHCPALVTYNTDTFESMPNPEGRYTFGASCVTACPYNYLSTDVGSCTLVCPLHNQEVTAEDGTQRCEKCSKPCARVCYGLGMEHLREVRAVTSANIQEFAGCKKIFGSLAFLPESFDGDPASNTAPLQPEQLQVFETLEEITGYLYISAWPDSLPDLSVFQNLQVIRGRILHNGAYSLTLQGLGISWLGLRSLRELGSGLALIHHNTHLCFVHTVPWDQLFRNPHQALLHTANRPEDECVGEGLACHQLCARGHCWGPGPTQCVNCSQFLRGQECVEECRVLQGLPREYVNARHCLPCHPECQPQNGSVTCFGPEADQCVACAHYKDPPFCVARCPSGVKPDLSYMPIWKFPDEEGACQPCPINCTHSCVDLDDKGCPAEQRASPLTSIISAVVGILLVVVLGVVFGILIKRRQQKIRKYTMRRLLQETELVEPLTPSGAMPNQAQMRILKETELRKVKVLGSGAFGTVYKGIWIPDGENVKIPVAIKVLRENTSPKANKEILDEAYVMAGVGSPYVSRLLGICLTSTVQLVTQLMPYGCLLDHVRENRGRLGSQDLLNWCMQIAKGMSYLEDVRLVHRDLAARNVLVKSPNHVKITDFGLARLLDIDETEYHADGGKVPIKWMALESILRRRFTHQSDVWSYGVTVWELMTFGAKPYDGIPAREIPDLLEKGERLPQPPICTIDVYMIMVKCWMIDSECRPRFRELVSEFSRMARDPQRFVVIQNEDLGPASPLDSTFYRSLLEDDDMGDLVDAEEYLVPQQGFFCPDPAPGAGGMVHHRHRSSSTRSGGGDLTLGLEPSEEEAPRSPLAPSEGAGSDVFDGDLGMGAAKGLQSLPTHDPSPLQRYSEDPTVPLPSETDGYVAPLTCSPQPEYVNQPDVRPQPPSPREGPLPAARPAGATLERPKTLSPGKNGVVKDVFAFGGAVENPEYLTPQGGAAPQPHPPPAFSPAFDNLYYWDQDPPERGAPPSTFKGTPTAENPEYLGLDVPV

T1 sequence (P00533 25-1210 limits assumed): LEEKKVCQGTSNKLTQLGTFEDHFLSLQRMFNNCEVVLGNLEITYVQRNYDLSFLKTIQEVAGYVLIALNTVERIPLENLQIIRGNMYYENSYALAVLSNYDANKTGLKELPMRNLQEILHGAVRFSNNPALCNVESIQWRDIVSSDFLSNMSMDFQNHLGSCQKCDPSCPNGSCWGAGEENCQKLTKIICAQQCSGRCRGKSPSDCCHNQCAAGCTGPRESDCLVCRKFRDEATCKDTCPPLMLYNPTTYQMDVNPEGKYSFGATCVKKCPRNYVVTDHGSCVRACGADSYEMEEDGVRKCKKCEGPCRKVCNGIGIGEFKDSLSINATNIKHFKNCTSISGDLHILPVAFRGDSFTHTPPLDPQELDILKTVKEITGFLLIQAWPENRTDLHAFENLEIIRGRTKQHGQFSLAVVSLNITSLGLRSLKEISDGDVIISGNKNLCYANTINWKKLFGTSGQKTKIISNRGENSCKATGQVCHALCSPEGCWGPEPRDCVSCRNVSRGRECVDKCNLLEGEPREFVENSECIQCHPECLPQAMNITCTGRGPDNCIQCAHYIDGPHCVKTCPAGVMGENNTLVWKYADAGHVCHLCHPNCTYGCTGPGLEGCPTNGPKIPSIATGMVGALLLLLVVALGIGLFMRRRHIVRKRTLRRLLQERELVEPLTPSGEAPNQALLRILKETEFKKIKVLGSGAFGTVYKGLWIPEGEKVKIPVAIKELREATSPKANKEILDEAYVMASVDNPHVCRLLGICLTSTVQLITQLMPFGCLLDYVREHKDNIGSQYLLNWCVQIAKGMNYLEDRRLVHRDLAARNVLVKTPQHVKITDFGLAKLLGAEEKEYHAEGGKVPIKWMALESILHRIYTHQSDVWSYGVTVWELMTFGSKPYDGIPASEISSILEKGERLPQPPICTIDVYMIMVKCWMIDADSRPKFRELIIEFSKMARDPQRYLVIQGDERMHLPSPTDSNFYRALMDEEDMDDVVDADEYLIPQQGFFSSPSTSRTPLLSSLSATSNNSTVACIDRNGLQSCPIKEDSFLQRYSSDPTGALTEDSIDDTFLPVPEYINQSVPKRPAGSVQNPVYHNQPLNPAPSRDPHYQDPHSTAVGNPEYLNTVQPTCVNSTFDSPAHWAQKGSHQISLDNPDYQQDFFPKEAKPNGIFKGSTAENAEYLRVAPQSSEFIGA
Chain of Human EGF receptor tyrosine kinase (P00533 25-1210 limits assumed): as above

Row | IC50 [1] [nM] | IC50 [2] [nM] | % EGFR enzyme activity after 8 hours washoff [3] [%] | IC50 [4] [nM] | melting point [°C] | SMILES
1 | 5.8 | 4.8 | 0 |  |  | C=CC(=O)Nc1ccc2ncnc(Nc3ccc(Oc4ccccc4)cc3)c2c1 [Example 1, N-(4-[4-Phenoxyanilino]quinazolin-6-yl)acrylamide]
2 | 3.6 | 4.2 | 0 | 7.6 |  | C=CC(=O)Nc1ccc2ncnc(Nc3ccc(OCc4ccccc4)cc3)c2c1 [Example 2, N-(4-[4-Benzyloxyanilino]quinazolin-6-yl)acrylamide]
3 |  |  |  |  | 227 to 229 | C=CC(=O)Nc1ccc2ncnc(Nc3ccc(OCc4ccccc4)cc3)c2c1 (as salt: salt) [Example 2, N-(4-[4-Benzyloxyanilino]quinazolin-6-yl)acrylamide]
4 |  |  |  |  | 185 to 191 | C=CC(=O)Nc1ccc2ncnc(Nc3ccc(Oc4ccccc4)cc3)c2c1 (as salt: salt) [Example 1, N-(4-[4-Phenoxyanilino]quinazolin-6-yl)acrylamide]
